Source: US20250263459A1, “STABILIZED PACAP PEPTIDE” (SENJU PHARMACEUTICAL CO., LTD., priority 2019, published 2025)
pEC50: −log10 of the molar value. Non-standard residues stand in square brackets, D forms with d. Residues, ends and D or L forms follow the SMILES beside them. ξ: configuration not given here. Ala(1H-tetrazol-5-yl) = N[C@@H](Cc1nnn[nH]1)C(=O)O; ξAla(tetrazol-5-yl) = NC(Cc1nnn[nH]1)C(=O)O; Aib = CC(C)(N)C(=O)O

Key:
[1] = molecular target: T1, VPAC1 receptor (Homo sapiens, UniProt P32241); test: cAMP assay in CHO-K1 cells, VPAC1 receptor high-expressing cell line; type: cell-based; details: 30 minutes incubation
T1 construct: host or cells: CHO-K1
T1 sequence (P32241 31-457): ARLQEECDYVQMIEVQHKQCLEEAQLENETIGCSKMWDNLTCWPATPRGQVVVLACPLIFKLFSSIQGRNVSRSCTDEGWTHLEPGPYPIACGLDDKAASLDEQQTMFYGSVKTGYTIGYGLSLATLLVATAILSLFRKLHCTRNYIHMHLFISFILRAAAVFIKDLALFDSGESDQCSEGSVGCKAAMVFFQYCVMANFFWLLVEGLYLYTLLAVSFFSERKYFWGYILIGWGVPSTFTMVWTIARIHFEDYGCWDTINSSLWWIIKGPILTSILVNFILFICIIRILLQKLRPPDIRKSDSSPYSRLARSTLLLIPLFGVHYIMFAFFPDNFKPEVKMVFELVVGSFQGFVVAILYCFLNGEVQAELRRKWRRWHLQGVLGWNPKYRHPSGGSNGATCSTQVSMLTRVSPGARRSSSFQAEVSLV
Procedure: The cells were cultured for 18 to 24 hours at 37° C. in a 5% CO2 incubator, adhering the cells to the plate. […] A 5-fold dilution series was then prepared with the same Cell assay buffer and used in an assay. The cAMP assay was carried out using a Hit Hunter cAMP Assay for Biologics kit (product of DiscoveRx, Cat. No. 90-0075LM25), according to the included kit instructions. […] Next, the culture medium was removed from the CHO-K1 cell culture plate, washing was performed with PBS, and the peptide-cAMP antibody liquid mixtures were added to the cells and incubated for 30 minutes under a 5% CO2 atmosphere at 37° C. A working detection solution was then added and the culture plate was shielded from light with aluminum foil and incubated at 25° C. for 1 hour. After incubation, Solution A was added and the culture plate was shielded from light with aluminum foil and then incubated at 25° C. for 3 hours. […] The obtained value for the Relative Luminescence Unit (RLU) was analyzed with GraphPad Prism Ver 6.05 (product of Graph Pad) and the EC50 value was calculated for each peptide.

[2] = Stability test 1, sample preparation 5: survival rate of peptide in Tris buffer (pH 7.0) after storage, HPLC; type: physicochemical; details: 100 μM peptide; for survival rate after correction for water, 40° C. 4 week / survival rate after correction for water, 40° C. 8 week: Tris buffer pH 7.0, 40° C.; for survival rate after correction for water, 40° C. 4 week: 4 weeks (Table 13); for survival rate after correction for water, 40° C. 8 week: 8 weeks (Table 13); for survival rate after correction for water, 60° C. 1 week / survival rate after correction for water, 60° C. 2 week: Tris buffer pH 7.0, 60° C.; for survival rate after correction for water, 60° C. 1 week: 1 week (Table 13); for survival rate after correction for water, 60° C. 2 week: 2 weeks (Table 13)
Procedure: (§1) The peak area value for the peptide in the chromatogram was calculated, and the survival rate (survival rate before correction for water) was calculated using formula (2). The survival rate after correction for water was also calculated from the survival rate before correction for water using formula (3) to take into account the permeability of the container.
The prepared peptide solutions were incubated for 4 weeks or 8 weeks in a 40° C. thermostatic bath, and for one week or 2 weeks in a thermostatic bath at 60° C., to obtain stored samples.
The following gradient time was used only for peptide 30.

[3] = 100 μM peptide, Tris buffer pH 7.0, 60° C.
Procedure: The solution was filtered with a Chromatdisk (product of Merck Millipore, Millex-GV, 0.22 μm). The filtrate was diluted to 100 μM with Tris buffer (pH 7.0) and dispensed into a tube (Protein LoBind Tube by Eppendorf Co.). The prepared peptide solutions were incubated for 1 week or 2 weeks in a 60° C. thermostatic bath to obtain stored samples. A simultaneously prepared sample among the peptide solutions that was not stored was used as a standard sample (initial sample). The standard sample and the stored samples were stored at −30° C. until sample analysis.
• Column: XSelect CSH C18 by Waters Co., 5 μm, 4.6×250 mm • Guard column: XSelect CSH C18 by Waters Co., 5 μm, 4.6×20 mm Guard Cartridge • Detection wavelength: 220 nm • Mobile phase A: 0.1% formic acid aqueous solution • Mobile phase B: 0.1% acetonitrile formate solution • Measuring time: 20 minutes • Measuring sample injection rate: 50 μL • Flow rate: 1.0 mL/min • Column temperature: 40° C. • Sample cooler: 25° C. • Mobile phase delivery: The mixing ratio of mobile phase A and mobile phase B was varied as shown in Table 14 for linear concentration gradient control.

[4] = Stability test 1: survival rate of peptide in phosphate buffer (pH 7.0) after storage, HPLC; type: physicochemical; details: 100 μM peptide
Procedure: The 1.0 mM peptide solutions were then diluted with phosphate buffer to 100 μM. […] The prepared peptide solutions were incubated for one month or 2 months in a 40° C. thermostatic bath to obtain stored samples.
Using the total weight of the aqueous peptide solution and storage vessel as the specimen weight, measurements were recorded as the specimen weights before storage and the specimen weights after storage under different storage conditions. The empty weight of the storage vessel was also measured, and the moisture permeability was determined by the following formula.
After stirring the standard sample and the stored samples with a vortex mixer, each peptide solution was transferred to an HPLC vial (Deactivated Qsert vial by Waters Co.). Reverse-phase HPLC (HPLC system: Prominence by Shimadzu Corp.) was conducted under the conditions shown in Table 3 below for analysis of the peptide solutions, and chromatograms were obtained.
as §1
Peptide solutions prepared by the same method as [Measuring sample preparation 1] for the peptides synthesized in Example 2 (peptides 13 to 16) were incubated for 2 weeks and 8 weeks in a thermostatic bath at 40° C. to obtain stored samples.
Peptide solutions prepared by the same method as [Measuring sample preparation 1] for the peptides synthesized in Example 2 (peptides 17 to 21) were incubated for 4 weeks in a thermostatic bath at 40° C. to obtain stored samples.
A peptide solution prepared by the same method as [Measuring sample preparation 1] for peptide 22 synthesized in Example 2 was incubated for 1 week and 4 weeks in a thermostatic bath at 40° C. to obtain stored samples.

[5] = as above; type: physicochemical; details: 100 μM peptide, 0.1% phosphate buffer pH 7.0, head prints 80° C., 8 weeks (Table 4)
[6] = 0.1% phosphate buffer pH 7.0, 40° C., 4 weeks (Table 4)

| SMILES | survival rate after correction for water, 40° C. 4 week [2] | survival rate after correction for water, 40° C. 8 week [2] | survival rate after correction for water, 60° C. 1 week [2] | survival rate after correction for water, 60° C. 2 week [2] | survival rate after correction for water, 40° C. 4 week [4, 6] | survival rate after correction for water, 80° C. 8 week [5] | further results |
| --- | --- | --- | --- | --- | --- | --- | --- |
| CC[C@H](C)[C@H](NC(=O)CNC(=O)[C@H](Cc1nnn[nH]1)NC(=O)[C@H](CO)NC(=O)[C@H](Cc1c[nH]cn1)NC(C)=O)C(=O)N[C@@H](Cc1ccccc1)C(=O)N[C@@H](C)C(=O)N[C@@H](Cc1nnn[nH]1)C(=O)N[C@@H](C)C(=O)N[C@@H](Cc1ccc(O)cc1)C(=O)N[C@@H](CO)C(=O)N[C@@H](CCCNC(=N)N)C(=O)N[C@@H](Cc1ccc(O)cc1)C(=O)N[C@@H](CCCNC(=N)N)C(=O)N[C@@H](CCCCN)C(=O)N[C@@H](CCC(N)=O)C(=O)N[C@@H](CC(C)C)C(=O)N[C@@H](C)C(=O)N[C@H](C(=O)N[C@@H](CCCCN)C(=O)N[C@@H](CCCCN)C(=O)N[C@@H](Cc1ccc(O)cc1)C(=O)N[C@@H](CC(C)C)C(=O)N[C@@H](C)C(=O)N[C@@H](C)C(=O)N[C@H](C(=O)N[C@@H](CC(C)C)C(N)=O)C(C)C)C(C)C [Peptide 27, HSTzGI FATzAY SRYRK QLAVK KYLAA VL] (Ac-HS[Ala(1H-tetrazol-5-yl)]GIFA[Ala(1H-tetrazol-5-yl)]AYSRYRKQLAVKKYLAAVL-NH2) | 90.9% | 84.3% | 97.3% | 95.5% | – | – | pEC50 [1]: 9.95 |
| CC[C@H](C)[C@H](NC(=O)CNC(=O)[C@H](CC(=O)O)NC(=O)[C@H](CO)NC(=O)[C@@H](N)Cc1c[nH]cn1)C(=O)N[C@@H](Cc1ccccc1)C(=O)N[C@H](C(=O)N[C@@H](CC(=O)O)C(=O)N[C@@H](CO)C(=O)N[C@@H](Cc1ccc(O)cc1)C(=O)N[C@@H](CO)C(=O)N[C@@H](CCCNC(=N)N)C(=O)N[C@@H](Cc1ccc(O)cc1)C(=O)N[C@@H](CCCNC(=N)N)C(=O)N[C@@H](CCCCN)C(=O)N[C@@H](CCC(N)=O)C(=O)N[C@@H](CCSC)C(=O)N[C@@H](C)C(=O)N[C@H](C(=O)N[C@@H](CCCCN)C(=O)N[C@@H](CCCCN)C(=O)N[C@@H](Cc1ccc(O)cc1)C(=O)N[C@@H](CC(C)C)C(=O)N[C@@H](C)C(=O)N[C@@H](C)C(=O)N[C@H](C(=O)N[C@@H](CC(C)C)C(N)=O)C(C)C)C(C)C)[C@@H](C)O [Reference Example 1, reference compound] | 37.9% | 15.6% | 26.4% | 14.6% | 37.4% | 21.3% | survival rate after correction for water, 60° C. 1 week preservation ([3]; 1 week): 26.6%; survival rate after correction for water, 60° C. 2 weeks preservation ([3]; 2 weeks): 15.8%; survival rate after correction for water, 40° C. 1 week ([4]; phosphate buffer pH 7.0, 40° C., 1 week (Table 10)): 74.9%; survival rate after correction for water, 40° C. 2 week ([4]; phosphate buffer pH 7.0, 40° C., 2 weeks (Table 6)): 64.3%; survival rate after correction for water, 40° C. 4 week ([4]; phosphate buffer pH 7.0, 40° C., 4 weeks (Table 8)): 23.9%; survival rate after correction for water, 40° C. 4 week ([4]; phosphate buffer pH 7.0, 40° C., 4 weeks (Table 10)): 33.0%; survival rate after correction for water, 40° C. 8 week ([4]; phosphate buffer pH 7.0, 40° C., 8 weeks (Table 6)): 23.7% |
| CC[C@H](C)[C@H](NC(=O)CNC(=O)C(Cc1nnn[nH]1)NC(=O)[C@H](CO)NC(=O)[C@@H](N)Cc1c[nH]cn1)C(=O)N[C@@H](Cc1ccccc1)C(=O)N[C@@H](C)C(=O)NC(Cc1nnn[nH]1)C(=O)N[C@@H](CO)C(=O)N[C@@H](Cc1ccc(O)cc1)C(=O)N[C@@H](C)C(=O)N[C@@H](CCCNC(=N)N)C(=O)N[C@@H](Cc1ccc(O)cc1)C(=O)N[C@@H](CCCNC(=N)N)C(=O)N[C@@H](CCCCN)C(=O)N[C@@H](CCC(N)=O)C(=O)N[C@@H](CCSC)C(=O)N[C@@H](C)C(=O)N[C@H](C(=O)N[C@@H](CCCCN)C(=O)N[C@@H](CCCCN)C(=O)N[C@@H](Cc1ccc(O)cc1)C(=O)N[C@@H](CC(C)C)C(=O)N[C@@H](C)C(=O)N[C@@H](C)C(=O)N[C@H](C(=O)N[C@@H](CC(C)C)C(N)=O)C(C)C)C(C)C (stereo partly drawn) [Peptide 2, HSTzGI FATzSY ARYRK QMAVK KYLAA VL] (H-HS[ξAla(tetrazol-5-yl)]GIFA[ξAla(tetrazol-5-yl)]SYARYRKQMAVKKYLAAVL-NH2) | – | – | – | – | 91.9% | 83.7% | – |
| CC[C@H](C)[C@H](NC(=O)CNC(=O)C(Cc1nnn[nH]1)NC(=O)[C@H](CO)NC(=O)[C@@H](N)Cc1c[nH]cn1)C(=O)N[C@@H](Cc1ccccc1)C(=O)N[C@@H](C)C(=O)NC(Cc1nnn[nH]1)C(=O)NC(C)(C)C(=O)N[C@@H](Cc1ccc(O)cc1)C(=O)N[C@@H](CO)C(=O)N[C@@H](CCCNC(=N)N)C(=O)N[C@@H](Cc1ccc(O)cc1)C(=O)N[C@@H](CCCNC(=N)N)C(=O)N[C@@H](CCCCN)C(=O)N[C@@H](CCC(N)=O)C(=O)N[C@@H](CCSC)C(=O)N[C@@H](C)C(=O)N[C@H](C(=O)N[C@@H](CCCCN)C(=O)N[C@@H](CCCCN)C(=O)N[C@@H](Cc1ccc(O)cc1)C(=O)N[C@@H](CC(C)C)C(=O)N[C@@H](C)C(=O)N[C@@H](C)C(=O)N[C@H](C(=O)N[C@@H](CC(C)C)C(N)=O)C(C)C)C(C)C (stereo partly drawn) [Peptide 4, HSTzGI FATzAiY SRYRK QMAVK KYLAA VL] (H-HS[ξAla(tetrazol-5-yl)]GIFA[ξAla(tetrazol-5-yl)][Aib]YSRYRKQMAVKKYLAAVL-NH2) | – | – | – | – | 95.4% | 88.4% | – |
| CC[C@H](C)[C@H](NC(=O)CNC(=O)C(Cc1nnn[nH]1)NC(=O)[C@H](CO)NC(=O)[C@@H](N)Cc1c[nH]cn1)C(=O)N[C@@H](Cc1ccccc1)C(=O)N[C@H](C(=O)NC(Cc1nnn[nH]1)C(=O)NC(C)(C)C(=O)N[C@@H](Cc1ccc(O)cc1)C(=O)NC(C)(C)C(=O)N[C@@H](CCCNC(=N)N)C(=O)N[C@@H](Cc1ccc(O)cc1)C(=O)N[C@@H](CCCNC(=N)N)C(=O)N[C@@H](CCCCN)C(=O)N[C@@H](CCC(N)=O)C(=O)N[C@@H](CCSC)C(=O)N[C@@H](C)C(=O)N[C@H](C(=O)N[C@@H](CCCCN)C(=O)N[C@@H](CCCCN)C(=O)N[C@@H](Cc1ccc(O)cc1)C(=O)N[C@@H](CC(C)C)C(=O)N[C@@H](C)C(=O)N[C@@H](C)C(=O)N[C@H](C(=O)N[C@@H](CC(C)C)C(N)=O)C(C)C)C(C)C)[C@@H](C)O (stereo partly drawn) [Peptide 7, HSTzGI FTTzAiY AiRYRK QMAVK KYLAA VL] (H-HS[ξAla(tetrazol-5-yl)]GIFT[ξAla(tetrazol-5-yl)][Aib]Y[Aib]RYRKQMAVKKYLAAVL-NH2) | – | – | – | – | 91.8% | 83.5% | – |
